This is an account of results in a melting point compilation (Tetko et al.; mined from patent text by program, amines drawn as free bases though some values may be those of a salt).

Broadly, the melting point is the temperature of the solid-liquid transition.

The compound `CCOC(=O)c1cc2c(nc(C)n2C)c2c1CCC(OC)(c1ccccc1)O2` (stereo not given) had a melting point of 176 to 178 °C. Take `CC(C)(C)c1ccc(C(O)(c2ccccc2)C2CCN(CCCC(O)c3ccccc3)CC2)cc1` (stereo not given): the melting point was 161 to 163 °C. With `O=C(NC1CCC(CCN2CCN(c3nccc4c3CCO4)CC2)CC1)c1ccc(N2CCS(=O)(=O)CC2)cc1` (stereo not given), the melting point amounted to 262 °C.

`Cc1c(-c2cc(C(F)(F)F)cc(C(F)(F)F)c2)ccc2nc(N=CN(C)C)nc(N=CN(C)C)c12` registered a melting point of 208 to 210 °C. `CCOC(=O)C1=C(COC)NC(COC)=C(C(=O)OCC)C1c1ccc(SC)cc1` yielded a melting point of 136 to 138 °C. For `CCN(CC)C1CCCCN(CC(=O)N2c3ccccc3C(=O)Nc3cccnc32)C1` (stereo not given) the value was 222 to 224 °C. The compound `CC(C)(C)N1CC(c2ccc([N+](=O)[O-])cc2)OC1=O` (stereo not given) yielded a melting point of 123 to 125 °C. In turn, `CCCC(CCC)n1c(CC)nc2c1c(=O)n(C)c(=O)n2Cc1ccc(OC)cc1` displayed a melting point of 120 to 122 °C. The figure for `CN(CC(F)(F)F)C(=O)COc1nc2ccccc2o1` is 92 °C; for `CCCNC(=O)c1nc(C)ccc1C(=O)Nc1c(Cl)ccc(C)c1C#N` it is 129 to 131 °C; for `CCc1nc2c(cnn2CC)c(NC2CCOCC2)c1CNC(=O)c1cccc(C(=O)NCc2ccc(Cl)c(-c3cccc(CN4CCCN(C)CC4)c3)c2)c1` it is 105 to 107 °C. The figure for `O=C(Nc1cccc2c1C(=O)c1c-2n[nH]c1-c1ccc(N2CCNCC2)cc1)NN1CCC[C@@H]1CO` is 190 °C; for `CCN1c2ncccc2C(=O)Nc2c(C)cc(OC)nc21` it is 249 to 251 °C. In turn, `CN(CCCNc1ncc(Cc2ccc(F)cc2)c(=O)[nH]1)c1ccccn1` showed a melting point of 70 °C. The figure for `COc1c(NC(=O)c2ccc(C)c(-n3cc(C(=O)O)nn3)c2)cc(C(C)(C)C)cc1NS(C)(=O)=O` is 222 to 224 °C; for `CC(=O)N1CCC2(CC1)CSC1=C(O2)c2ccccc2C(=O)C1=O` it is 252 to 255 °C. The figure for `CC(=O)NCC1CCC(C(=O)N2CC2C#N)CC1` (stereo not given) is 92 to 94 °C; for `COC(=O)c1ncc(O)c2c1[nH]c1ccccc12` it is 241 to 242 °C; for `CC(C)(C)c1nnc(Oc2ccc(N)cc2)o1` it is 80 to 81 °C. The figure for `COC(=O)c1ccc(C(Cc2cc(C)ccc2N2CCCCC2)C(N)=O)cc1` (stereo not given) is 124 to 126 °C. In the case of `COc1ccc(COC(=O)C(N)CCCCNC(=O)OC(C)(C)C)cc1` (stereo not given), the melting point fell in the range of 118 to 120 °C. The figure for `CCCCC(OC)c1c(C(C)C)nc(C(C)C)c(CO)c1-c1ccc(F)cc1` (stereo not given) is 121 to 123 °C; for `CSc1ncc2cc(-c3c(Cl)cccc3Cl)c(=N)n(C)c2n1` it is 198 to 200 °C. The figure for `CC(=O)N(c1cc(F)c(C#N)cc1F)c1nnnn1-c1ccc(OC(F)(F)F)cc1` is 108 to 110 °C. For `Cc1oc(-c2ccccc2)nc1COc1ccc2c(-c3ccccc3)c(COc3nn(-c4ccccc4)cc3C(=O)O)oc2c1` the value was 200 to 201 °C; for `CC(C)(C)OC(=O)c1sc(Nc2ccccc2)c2c1CCc1cnoc1-2`, 148 to 149 °C. `COc1sc(S(=O)(=O)C[N+](=O)[O-])cc1Br` yielded a melting point of 120 to 121 °C. As for `COc1ccc(CCNC(=O)CCC2(c3ccc(OC)c(OC)c3)SCCCS2)cc1OC`, the melting point was in the range of 135 to 136 °C.

Compound `CN(C)CCNc1c(-c2ccccc2)c(=O)[nH]c2cc(Cl)ccc12` yielded a melting point of 230 °C. As for `CCOC(=O)c1cccc(-c2ccc3c(n2)C(O)CC3)c1` (stereo not given), the melting point fell in the range of 46 to 47 °C. The figure for `CSCCc1nc(OCC(F)(F)F)c(C#N)c(N2CCc3ccccc3CC2)n1` is 97 to 100 °C; for `CCCCS(=O)(=O)NC1Cc2ccccc2C1` it is 60 to 62 °C. For `CC(C)(C)OC(=O)Nc1ccc(C#Cc2ccccc2)cc1NC(=O)CC(=O)c1cccc([N+](=O)[O-])c1` the value was 177 to 179 °C; for `COC(=O)c1n[nH]c(C(C)C)c1[N+](=O)[O-]`, 78 to 80 °C. For `O=C(Cc1c(F)cccc1C(=O)O)Nc1cccc(/C=C/c2nc(C3CCC3)cs2)c1` the value was 221 to 222 °C; for `COc1ccc2nc(C(F)(F)F)c(C(=O)O)c(O)c2c1`, 256 °C; for `NCCNC(=O)c1nc(Cl)c(N)nc1N`, 173 to 174 °C.

Compound `CCn1cc2c(n1)c(=O)[nH]c1cc(OCc3ccccc3)ccc12` had a melting point of 240 to 241 °C.

In turn, `CN(C(=O)OCc1ccccc1)[C@H]1CNc2ccccc2C1` came in with a melting point of 80 °C.

On to `CCCc1nn(C)c2c(=O)[nH]c(Cc3ccc(N(CC)C(C)=O)cc3)nc12`, for which the melting point was in the range of 149 to 151 °C. The figure for `COC(=O)c1c(Sc2ccc(OC)cc2)nc(-c2ccccc2)n1Cc1cc2c(cc1Cl)OCO2` is 161 °C; for `Nc1ccc(NC(=O)c2ccc(CNC(=O)OCc3cccnc3)cc2)cc1` it is 204 to 205 °C; for `O=[N+]([O-])c1cc(F)c(-c2ccc(C(F)(F)F)cc2)cc1F` it is 113 to 114 °C. The figure for `OCc1ccc2c(c1)C1(c3ccccc3-2)c2ccccc2-c2ccc(CO)cc21` is 254 to 255 °C; for `COc1cc(OCc2cccnc2)ccc1/C=C/c1cc(/C=C/c2c[nH]c3ccccc23)n[nH]1` it is 129 to 137 °C.

`COc1cccc(OC)c1CN1CC2CCCN2c2ncccc21` (stereo not given) showed a melting point of 211 to 213 °C. Regarding `CCCN1CCCC2CC3=C(CCC(=O)N3)CC21` (stereo not given), the melting point was in the range of 183 to 184 °C.

Turning to `N#Cc1ncn2c1N(C(=O)CN1CCN(C(c3ccccc3)c3ccc(Cl)cc3)CC1)CC=C2c1cccc(C(F)(F)F)c1` (stereo not given), the melting point lay in the range of 105 to 107 °C. For `CC(C)c1nc(C(C)C)c(CCCCO)c(-c2ccc(F)cc2)c1CO` the value was 135 to 137 °C; for `CN(CCO)C(=O)c1c(-c2ccc(C(C)(C)C)cc2)n(C)n(-c2ccc(C#N)cc2)c1=O`, 210 to 213 °C; for `CCCCc1ccc(-c2ccc(CCc3ccc(Cl)cc3)cc2)c(F)c1`, 49 °C. The figure for `CC(C)n1nc(-c2sc(NC(=O)c3ccccc3F)nc2-c2ccccc2)ccc1=O` is 251 to 252 °C; for `Clc1ccc2ncc(Cl)nc2c1` it is 120 to 121 °C. For `Cc1c(-c2ccccc2)c(N2CC[C@H](N(C)C)C2)c2oc(N3CC(CC(=O)O)C3)nc2c1C#N` the value was 125 to 128 °C; for `COC(=O)c1ccc(I)c(O)c1`, 153 °C; for `CC(C)C1Sc2ccccc2NC(=O)C1NC(=O)C(F)(F)F` (stereo not given), 212 to 215 °C. The compound `CN(C)C(=O)C(=O)c1c[nH]c2ccc(Br)cc12` showed a melting point of 189 to 190 °C. For `Cc1nccn1-c1nc(-c2ccc(Cl)cc2)c(CCCN2C(=O)CNC2=O)o1`, the melting point is 197 to 198 °C. For `Cc1cc(Cl)ccc1N1C(=O)CON(C)C1=S` the value was 141 to 143 °C. The figure for `S=C=NCCCN1CCC(c2ccccc2)CC1` is 50 to 55 °C; for `CCCCOCC(O)COc1ccc(-c2nc(-c3ccc(OCC(O)COCCCC)cc3O)nc(-c3c(C)cc(C)cc3C)n2)c(O)c1` (stereo not given) it is 125 to 131 °C. In turn, `CCCc1nc(C(O)C(C)(C)C)c(C(N)=O)n1Cc1ccc(-c2ccccc2C(=O)C(=O)O)cc1` (stereo not given) yielded a melting point of 128 to 130 °C. `CCn1c(=O)n(-c2ccc(N3CCn4c3nc3cccnc34)cc2)c2ncccc21`: the melting point fell in the range of 255 to 256 °C. In turn, `Nc1nc(-c2ccccc2)nc2c1=NCC(=O)N=2` yielded a melting point of 330 to 332 °C.

For `O=C(O)Cc1ccc2c(c1)sc1cccc(Cl)c12`, the melting point lay in the range of 203 to 206 °C. For `COC(=O)c1ccc(NC(=O)c2c(-c3ccccc3)c(-c3ccc(F)cc3)n(CC[C@@H]3C[C@H](CC(=O)OC(C)(C)C)OC(C)(C)O3)c2C(C)C)cc1` the value was 159 to 160 °C; for `CCN1C(=O)C(C)(C)C(=O)N(C)c2cc(CN(CCn3ccc4oc(C(F)(F)F)cc4c3=O)Cc3cccnc3C)ccc21`, 132 to 134 °C. The figure for `c1ccc(N(c2ccc3c(c2)Oc2ccc(N(c4ccccc4)c4cccc5ccccc45)cc2O3)c2cccc3ccccc23)cc1` is 315 °C; for `Nc1ccc(NCCc2ccccc2)cc1` it is 247 °C; for `CCOC(=O)CCN(C1(C(=O)O)CCCC1)S(=O)(=O)c1ccc(Oc2ccc(F)cc2)cc1` it is 164 to 166 °C. The figure for `CN(CCN1C(=O)c2ccccc2C(C)(C)C1=O)CCN1C(=O)c2ccccc2C(C)(C)C1=O` is 106 to 107 °C; for `O=c1[nH]c2c(n3ccnc13)Cc1ccccc1-2` it is 350 °C.

In turn, `C(=Nc1c2c(nc3ccccc13)CCCC2)c1ccccc1` came in with a melting point of 168 to 169 °C. The figure for `COc1cc2c(cc1OC)[C@@H](O)[C@H](CN1CCC3(CC1)C(=O)NCN3c1ccccc1)C2` (relative stereo) is 189 to 190 °C; for `OCc1cc(N2CCCCC2)ncn1` it is 70 to 72 °C; for `COc1ccc(NS(C)(=O)=O)cc1C(=O)O` it is 160 to 163 °C. Regarding `COc1cccc2c1OC(CN1CC=C(c3c[nH]c4ccc(C#N)cc34)CC1)CO2` (stereo not given), the melting point lay in the range of 235 to 238 °C. For `CCOC(=O)c1cccn1CCN1CCC(=C2c3ccccc3CCn3ccnc32)CC1` the value was 158 °C. As for `CCC(=O)Nc1cc(F)ccc1C(=O)O`, the melting point was in the range of 170 to 171 °C. For `Clc1cc(CCc2ccccn2)c2oc(-c3cccc4cccnc34)nc2c1` the value was 110 to 111 °C; for `Sc1nc2cc3ccccc3cc2o1`, 101 to 102 °C.

`NC(C(=O)OC1CCCCC1)C(=O)OC1CCCCC1` yielded a melting point of 46 to 47 °C. For `COCc1ccc2nc(SCCN3CCN(CC(=O)Nc4c(C(C)C)cccc4C(C)C)CC3)oc2c1COC` the value was 96 to 97 °C; for `CCCN(Cc1ccc(C(=O)N(CCC)C2CCc3ncsc3C2)cc1)C1CCc2ncsc2C1` (stereo not given), 85 °C; for `CC1CCN(c2cc(C(C)(C)C)no2)C1=O` (stereo not given), 73 to 75 °C.
